Experimental data published in US20070003565A1 (priority 2003, published 2007).
In brackets after ≈: the same amount, converted by molar mass. Residues, ends and D or L forms follow the SMILES beside them.

Key:
No.04 coronavirus [1] = test: microbe, parasite or virus in culture; details: Severe acute respiratory syndrome coronavirus
No.04 coronavirus [2] = tested on: No.04 coronavirus
MT-4 cells = test: Cytotoxicity to MT-4 cells (MTT method); assay type: cell-based; details: 12000 ng/ml to 24 ng/ml, 6 days
Method: Then test drugs were added. […] Cell growth was subsequently determined by the MTT method.

Nc1nc(O)c2ncn(COC(CO)CO)c2n1 [Ganciclovir, ganciclovir]
IC50 (No.04 coronavirus [1]; HEK293, read-out: half-inhibitory concentration (IC50)): 11.7 µg/mL (≈ 45.8 µM)
MIC (No.04 coronavirus [1]; read-out: minimum inhibitory concentration (MIC)): 23.4 µg/mL (≈ 91.8 µM)
treatment index (TI) (No.04 coronavirus [2]; CPE method, 293 cells): 256

CC[C@H](C)[C@H](NC(=O)[C@@H](NC(=O)[C@@H]1CCCN1C(=O)[C@H](CC(=O)O)NC(=O)[C@H](Cc1c[nH]cn1)NC(=O)[C@@H](NC(=O)[C@@H](N)CCSC)[C@@H](C)O)C(C)C)C(=O)N[C@@H](CO)C(=O)N[C@@H](CC(C)C)C(=O)N1CCC[C@H]1C(=O)N[C@H](C(=O)N[C@H](C(=O)O)[C@@H](C)O)[C@@H](C)O [HAb18G-AP-1] (H-MTHDPVISLPTT-OH)
cell growth of MT-4 cells (in words) (MT-4 cells): cell growth was not affected

N=C(N)NCCC[C@H](NC(=O)[C@H](Cc1c[nH]cn1)NC(=O)[C@H](Cc1c[nH]c2ccccc12)NC(=O)[C@H](Cc1c[nH]cn1)NC(=O)[C@H](CCCCN)NC(=O)[C@H](Cc1c[nH]cn1)NC(=O)[C@H](Cc1c[nH]cn1)NC(=O)[C@H](Cc1ccccc1)NC(=O)[C@@H]1CCCN1C(=O)[C@@H](N)Cc1ccc(O)cc1)C(=O)N1CCC[C@H]1C(=O)N[C@@H](CC(N)=O)C(=O)O [HAb18G-AP-6, Tyr Pro Phe His His Lys His Typ His Arg Pro Asn] (H-YPFHHKHWHRPN-OH)
half-inhibitory concentration (IC50) (No.04 coronavirus [2]; 24 h): 31.25 ± 0 µg/mL
minimum inhibitory concentration (MIC) (No.04 coronavirus [2]; 24 h): 62.25 ± 0 µg/mL (≈ 37.6 µM)
cell growth of MT-4 cells (in words) (MT-4 cells): cell growth was not affected

CC(C)C[C@H](NC(=O)[C@H](CCCCN)NC(=O)[C@@H](N)Cc1ccc(O)cc1)C(=O)N1CCC[C@H]1C(=O)NCC(=O)N[C@@H](Cc1c[nH]cn1)C(=O)N[C@@H](Cc1c[nH]cn1)C(=O)N[C@@H](Cc1c[nH]cn1)C(=O)N[C@@H](Cc1c[nH]cn1)C(=O)N[C@@H](Cc1ccc(O)cc1)C(=O)N[C@@H](CCCNC(=N)N)C(=O)N1CCC[C@H]1C(=O)O [HAb18G-AP-9] (H-YKLPGHHHHYRP-OH)
cell growth of MT-4 cells (in words) (MT-4 cells): cell growth was not affected
